Our source for the Emax and EC50 values is patent US20230265151A1, “GIP/GLP1 CO-AGONIST COMPOUNDS” (priority 2020, published 2023).

Like-named read-outs stand apart in the source and are kept apart here. *1 amine or outer side, *2 acyl side, *3 side chain or, on linkers, in order; H or OH if unused. Where a SMILES comes first, the peptide text is derived from it. Side-chain parts run from the residue outwards. [ ]: non-standard residue; d: D form. The star is where a group is joined. αMePhe(2-F) = C[C@](N)(Cc1ccccc1F)C(=O)O; γGlu = O=C(O)[C@H](CCC(=O)[*:2])N[*:1]; αMeY = C[C@](N)(Cc1ccc(O)cc1)C(=O)O; αMeF = C[C@](N)(Cc1ccccc1)C(=O)O; 4Pal = N[C@@H](Cc1ccncc1)C(=O)O; αMeL = CC(C)C[C@](C)(N)C(=O)O; Lauroyl = CCCCCCCCCCCC(=O)*; Orn = NCCC[C@H](N)C(=O)O; AEEA = NCCOCCOCC(=O)O; Aib = CC(C)(N)C(=O)O

Common to all, as to assay type: cell-based
In one experiment the target is T1, hGIPR (Homo sapiens, UniProt P48546).
T1 construct: expressed in transfected cells
T1 sequence (P48546 22-466): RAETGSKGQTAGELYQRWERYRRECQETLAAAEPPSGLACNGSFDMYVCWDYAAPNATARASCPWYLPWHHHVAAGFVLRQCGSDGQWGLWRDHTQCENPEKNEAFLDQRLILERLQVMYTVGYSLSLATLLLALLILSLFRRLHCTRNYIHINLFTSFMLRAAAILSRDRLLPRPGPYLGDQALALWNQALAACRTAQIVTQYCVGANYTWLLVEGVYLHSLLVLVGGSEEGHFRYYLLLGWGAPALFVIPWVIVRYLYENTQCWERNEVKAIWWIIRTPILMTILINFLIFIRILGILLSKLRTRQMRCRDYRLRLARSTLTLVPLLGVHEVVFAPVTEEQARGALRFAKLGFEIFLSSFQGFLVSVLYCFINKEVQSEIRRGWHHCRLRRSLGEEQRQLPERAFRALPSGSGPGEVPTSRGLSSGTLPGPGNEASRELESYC
Kind of experiment: Functional cAMP formation (HTRF) in HEK-293 clonal cells expressing hGIPR, 0.1% bovine casein, without or with 1.0% human serum albumin. The conditions noted are these: 37° C.; for Emax: percent of maximal response to GIP(1-42)NH2, read-out: hGIPR Emax, % ± SEM; for EC50: cAMP, 0.1% bovine casein (no human serum albumin), geometric mean, read-out: hGIPR EC50, nM (SEM, n). The procedure, abridged: (§1)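 Cells were stimulated with peptide for 30 min at 37° C, then lysed in buffer carrying cAMP-d2 and anti-cAMP Eu3+-cryptate for a competitive HTRF read after at least 60 min at room temperature. The 665/620 nm ratio was converted to nM cAMP against a standard curve.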

Another experiment concerns the target T2, hGCGR (Homo sapiens, UniProt P47871).
T2 construct: expressed in transfected cells
The experiment can be described thus: Functional cAMP formation (HTRF) in HEK-293 clonal cells expressing hGCGR, 0.1% bovine casein, without or with 1.0% human serum albumin. The note with it: 37° C., read-out: hGCGR EC50, nM (SEM, n). The procedure, abridged:
as §1

The target of the next experiment is hGLP-1R (Homo sapiens, UniProt P43220). Kind of experiment: Functional cAMP formation (HTRF) in HEK-293 clonal cells expressing hGLP-1R, 0.1% bovine casein, without or with 1.0% human serum albumin. Set-up: expressed in transfected cells. The conditions noted are these: 37° C.; for EC50: geometric mean, read-out: hGLP-1R EC50, nM (SEM, n); for Emax: percent of maximal response to GLP-1(7-36)NH2, read-out: hGLP-1R Emax, % ± SEM. An outline of the steps:
as §1

Where [1] appears, read: HEK293, 0.1% bovine casein and 1.0% human serum albumin.
Where [2] appears, read: HEK293, cAMP, 0.1% bovine casein, arithmetic mean.
Where [3] appears, read: 0.1% bovine casein and 1.0% human serum albumin, geometric mean.
[4] abbreviates: cAMP, 0.1% bovine casein (no human serum albumin), geometric mean.
The mark [5] stands for this setting: cAMP, 0.1% bovine casein (no human serum albumin).
Where [6] appears, read: HEK293, cAMP, 0.1% bovine casein and 1.0% human serum albumin.
Where [7] appears, read: cAMP, 0.1% bovine casein and 1.0% human serum albumin, geometric mean (SEM, n).

hGLP-1R, sequence (P43220 24-463): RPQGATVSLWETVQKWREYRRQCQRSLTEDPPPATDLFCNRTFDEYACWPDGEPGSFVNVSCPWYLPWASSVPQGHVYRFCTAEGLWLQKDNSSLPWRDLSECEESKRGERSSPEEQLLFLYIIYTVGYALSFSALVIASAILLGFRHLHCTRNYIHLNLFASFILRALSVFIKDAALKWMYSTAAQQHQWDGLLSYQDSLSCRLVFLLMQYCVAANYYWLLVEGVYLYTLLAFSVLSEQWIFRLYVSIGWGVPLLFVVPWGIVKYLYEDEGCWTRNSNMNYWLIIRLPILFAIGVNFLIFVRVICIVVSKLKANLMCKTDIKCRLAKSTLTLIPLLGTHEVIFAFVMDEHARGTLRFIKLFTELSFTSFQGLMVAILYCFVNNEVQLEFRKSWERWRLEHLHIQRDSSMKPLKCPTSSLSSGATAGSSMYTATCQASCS
T2 sequence (P47871 26-477): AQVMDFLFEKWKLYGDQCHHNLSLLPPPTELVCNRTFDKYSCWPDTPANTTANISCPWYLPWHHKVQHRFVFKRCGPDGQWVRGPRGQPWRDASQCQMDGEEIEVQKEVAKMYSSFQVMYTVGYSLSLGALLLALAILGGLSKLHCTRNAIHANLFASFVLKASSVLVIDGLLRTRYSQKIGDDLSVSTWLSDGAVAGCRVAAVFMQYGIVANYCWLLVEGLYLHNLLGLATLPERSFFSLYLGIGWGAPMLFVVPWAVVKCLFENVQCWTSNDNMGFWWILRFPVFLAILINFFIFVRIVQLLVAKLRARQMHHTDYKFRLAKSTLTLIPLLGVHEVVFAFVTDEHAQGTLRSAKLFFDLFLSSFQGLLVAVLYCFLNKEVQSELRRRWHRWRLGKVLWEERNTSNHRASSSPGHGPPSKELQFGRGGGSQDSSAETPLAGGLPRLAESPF

Consider `CCCCCCCCCCCC(=O)N[C@@H](CCC(=O)NCCOCCOCC(=O)NCCOCCOCC(=O)NCCCC[C@H](NC(=O)[C@H](CCCN)NC(=O)[C@H](CC(=O)O)NC(=O)[C@H](CC(C)C)NC(=O)[C@](C)(CC(C)C)NC(=O)[C@@H](NC(=O)C(C)(C)NC(=O)[C@H](Cc1ccc(O)cc1)NC(=O)[C@H](CC(=O)O)NC(=O)[C@H](CO)NC(=O)[C@@H](NC(=O)[C@](C)(Cc1ccccc1F)NC(=O)[C@@H](NC(=O)CNC(=O)[C@H](CCC(=O)O)NC(=O)C(C)(C)NC(=O)[C@@H](N)Cc1ccc(O)cc1)[C@@H](C)O)[C@@H](C)O)[C@@H](C)CC)C(=O)N[C@@H](C)C(=O)N[C@@H](CCC(N)=O)C(=O)NC(C)(C)C(=O)N[C@@H](CCC(=O)O)C(=O)N[C@@H](Cc1ccccc1)C(=O)N[C@H](C(=O)N[C@H](CCC(=O)O)C(=O)N[C@@](C)(Cc1ccc(O)cc1)C(=O)N[C@@H](CC(C)C)C(=O)N[C@H](C(=O)N[C@@H](CCCCNC(=O)COCCOCCNC(=O)COCCOCCNC(=O)CC[C@H](NC(=O)CCCCCCCCCCC)C(=O)O)C(=O)NCC(=O)NCC(=O)N1CCC[C@H]1C(=O)N[C@@H](CO)C(=O)N[C@@H](CO)C(=O)NCC(=O)N[C@@H](C)C(=O)N1CCC[C@H]1C(=O)N1CCC[C@H]1C(=O)N1CCC[C@H]1C(=O)N[C@@H](CO)C(N)=O)[C@@H](C)CC)[C@@H](C)CC)C(=O)O` [Example 301], for which the figures for the Emax at hGIPR (setting [1]) and on hGIPR (setting [2]) were 85.5% and 97.4%, respectively. Besides, the EC50 at hGIPR is 0.0128 nM; at hGCGR (setting [3]), more than 9950 nM; at hGCGR (setting [4]), more than 9950 nM; at hGLP-1R (setting [5]), 0.175 nM.
In the case of `CC[C@H](C)[C@H](NC(=O)[C@H](CC(C)C)NC(=O)[C@](C)(Cc1ccc(O)cc1)NC(=O)[C@@H](CCC(=O)O)NC(=O)[C@@H](NC(=O)[C@H](Cc1ccccc1)NC(=O)[C@H](CCCCNC(=O)CCOCCOCCOCCOCCNC(=O)CC[C@H](NC(=O)CCCCCCCCCCCCC(=O)O)C(=O)O)NC(=O)C(C)(C)NC(=O)[C@H](CCC(N)=O)NC(=O)[C@H](C)NC(=O)[C@H](CCCCNC(=O)CCOCCOCCOCCOCCNC(=O)CC[C@H](NC(=O)CCCCCCCCCCCCC(=O)O)C(=O)O)NC(=O)[C@H](CCCN)NC(=O)[C@H](CC(=O)O)NC(=O)[C@H](CC(C)C)NC(=O)[C@](C)(CC(C)C)NC(=O)[C@@H](NC(=O)C(C)(C)NC(=O)[C@H](Cc1ccncc1)NC(=O)[C@H](CC(=O)O)NC(=O)[C@H](CO)NC(=O)[C@@H](NC(=O)[C@](C)(Cc1ccccc1F)NC(=O)[C@@H](NC(=O)CNC(=O)[C@H](CCC(=O)O)NC(=O)C(C)(C)NC(=O)[C@@H](N)Cc1ccc(O)cc1)[C@@H](C)O)[C@@H](C)O)[C@@H](C)CC)[C@@H](C)CC)C(=O)N[C@@H](CCC(=O)O)C(=O)NCC(=O)NCC(=O)N1CCC[C@H]1C(=O)N[C@@H](CO)C(=O)N[C@@H](CO)C(=O)NCC(=O)N[C@@H](C)C(=O)N1CCC[C@H]1C(=O)N1CCC[C@H]1C(=O)N1CCC[C@H]1C(=O)N[C@@H](CO)C(N)=O` [Example 405], the Emax on hGIPR (setting [6]) worked out at 74.3%; on hGIPR (setting [2]) it was 100%; at hGLP-1R (setting [6]), 78.1%; on hGLP-1R (setting [2]) it was 93.3%. In addition, the EC50 on hGIPR was 0.0209 nM; at hGCGR (setting [4]), more than 9950 nM; on hGCGR (setting [7]), more than 9950 nM; on hGLP-1R (setting [5]) it was 1.26 nM.
As for `CCCCCCCCCCCC(=O)N[C@@H](CCC(=O)NCCOCCOCC(=O)NCCOCCOCC(=O)NCCOCCOCC(=O)NCCCC[C@H](NC(=O)[C@H](CCCN)NC(=O)[C@H](CC(=O)O)NC(=O)[C@H](CC(C)C)NC(=O)[C@](C)(CC(C)C)NC(=O)[C@@H](NC(=O)C(C)(C)NC(=O)[C@H](Cc1ccncc1)NC(=O)[C@H](CC(=O)O)NC(=O)[C@H](CO)NC(=O)[C@@H](NC(=O)[C@](C)(Cc1ccccc1F)NC(=O)[C@@H](NC(=O)CNC(=O)[C@H](CCC(=O)O)NC(=O)C(C)(C)NC(=O)[C@@H](N)Cc1ccc(O)cc1)[C@@H](C)O)[C@@H](C)O)[C@@H](C)CC)C(=O)N[C@@H](C)C(=O)N[C@@H](CCC(N)=O)C(=O)NC(C)(C)C(=O)N[C@@H](CCCCNC(=O)COCCOCCNC(=O)COCCOCCNC(=O)COCCOCCNC(=O)CC[C@H](NC(=O)CCCCCCCCCCC)C(=O)O)C(=O)N[C@@](C)(Cc1ccccc1)C(=O)N[C@H](C(=O)N[C@H](CCC(=O)O)C(=O)N[C@@](C)(Cc1ccc(O)cc1)C(=O)N[C@@H](CC(C)C)C(=O)N[C@H](C(=O)N[C@@H](CCC(=O)O)C(=O)NCC(=O)NCC(=O)N1CCC[C@H]1C(=O)N[C@@H](CO)C(=O)N[C@@H](CO)C(=O)NCC(=O)N[C@@H](C)C(=O)N1CCC[C@H]1C(=O)N1CCC[C@H]1C(=O)N1CCC[C@H]1C(=O)N[C@@H](CO)C(N)=O)[C@@H](C)CC)[C@@H](C)CC)C(=O)O` [Example 437] (H-Y[Aib]EGT[αMePhe(2-F)]TSD[4Pal][Aib]I[αMeL]LD[Orn]K([AEEA-AEEA-AEEA-γGlu-Lauroyl])AQ[Aib]K([AEEA-AEEA-AEEA-γGlu-Lauroyl])[αMeF]I[dE][αMeY]LIEGGPSSGAPPPS-NH2), the Emax was found to be 96.5% on hGIPR (setting [6]), 94.8% on hGIPR (setting [2]), 91.2% at hGLP-1R (setting [6]) and 89.2% on hGLP-1R (setting [2]). Besides, the EC50 at hGIPR was 0.0146 nM; at hGCGR (setting [4]), more than 9950 nM; at hGCGR (setting [7]), more than 9950 nM; on hGLP-1R (setting [5]), 0.249 nM.
For the compound `CC[C@H](C)[C@H](NC(=O)[C@H](CCCN)NC(=O)[C@H](CC(=O)O)NC(=O)[C@H](CC(C)C)NC(=O)[C@](C)(CC(C)C)NC(=O)[C@@H](NC(=O)[C@H](CO)NC(=O)[C@H](Cc1ccc(OC)cc1)NC(=O)[C@H](CC(=O)O)NC(=O)[C@H](CO)NC(=O)[C@@H](NC(=O)[C@](C)(Cc1ccccc1F)NC(=O)[C@@H](NC(=O)CNC(=O)[C@H](CCC(=O)O)NC(=O)C(C)(C)NC(=O)[C@@H](N)Cc1ccc(O)cc1)[C@@H](C)O)[C@@H](C)O)[C@@H](C)CC)C(=O)N[C@@H](C)C(=O)N[C@@H](CCC(N)=O)C(=O)NC(C)(C)C(=O)N[C@@H](CCCCNC(=O)COCCOCCNC(=O)COCCOCCNC(=O)CC[C@H](NC(=O)CCCCCCCCCCCCC(=O)O)C(=O)O)C(=O)N[C@@H](Cc1ccccc1)C(=O)N[C@H](C(=O)N[C@H](CCC(=O)O)C(=O)N[C@@](C)(Cc1ccc(O)cc1)C(=O)N[C@@H](CC(C)C)C(=O)N[C@H](C(=O)N[C@@H](CCCCNC(=O)COCCOCCNC(=O)COCCOCCNC(=O)CC[C@H](NC(=O)CCCCCCCCCCCCC(=O)O)C(=O)O)C(=O)NCC(=O)NCC(=O)N1CCC[C@H]1C(=O)N[C@@H](CO)C(=O)N[C@@H](CO)C(=O)NCC(=O)N[C@@H](C)C(=O)N1CCC[C@H]1C(=O)N1CCC[C@H]1C(=O)N1CCC[C@H]1C(=O)N[C@@H](CO)C(N)=O)[C@@H](C)CC)[C@@H](C)CC` [Example 263], the Emax is 72.7% on hGIPR (setting [1]), 88.6% at hGIPR (setting [2]), 95.8% on hGLP-1R (setting [1]) and 98.5% at hGLP-1R (setting [2]). The EC50 was 0.0214 nM on hGIPR; more than 9950 nM on hGCGR (setting [3]); more than 9950 nM at hGCGR (setting [4]); 56.7 nM on hGLP-1R (0.1% bovine casein and 1.0% human serum albumin); 0.294 nM on hGLP-1R (setting [5]).
